In PubChem BioAssay (NCI):
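Assay format: 96-well plates, 48-hour exposure. TGI denotes the concentration required for complete inhibition of growth.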

What was measured:
Assay in all cases: NCI-60 cell line screen, 48 h
MDA-MB-231 breast = system: MDA-MB-231 breast
RPMI-8226 leukemia = system: RPMI-8226 leukemia
SK-OV-3 ovarian = system: SK-OV-3 ovarian
T-47D breast = system: T-47D breast
HT29 colon = system: HT29 colon
HS 578T breast = system: HS 578T breast
SNB-19 CNS = system: SNB-19 CNS
SN12C renal = system: SN12C renal
UACC-257 melanoma = system: UACC-257 melanoma
MOLT-4 leukemia = system: MOLT-4 leukemia
CAKI-1 renal = system: CAKI-1 renal
PC-3 prostate = system: PC-3 prostate
HCT-15 colon = system: HCT-15 colon
SNB-75 CNS = system: SNB-75 CNS
HCT-116 colon = system: HCT-116 colon
SK-MEL-28 melanoma = system: SK-MEL-28 melanoma
OVCAR-5 ovarian = system: OVCAR-5 ovarian
OVCAR-8 ovarian = system: OVCAR-8 ovarian
RXF 393 renal = system: RXF 393 renal
MCF7 breast = system: MCF7 breast

SMILES	TGI (MDA-MB-231 breast) [µM]	TGI (RPMI-8226 leukemia) [µM]	TGI (SK-OV-3 ovarian) [µM]	TGI (T-47D breast) [µM]	TGI (HT29 colon) [µM]	TGI (HS 578T breast) [µM]	TGI (SNB-19 CNS) [µM]	TGI (SN12C renal) [µM]	TGI (UACC-257 melanoma) [µM]	TGI (MOLT-4 leukemia) [µM]	TGI (CAKI-1 renal) [µM]	TGI (PC-3 prostate) [µM]	TGI (HCT-15 colon) [µM]	TGI (SNB-75 CNS) [µM]	TGI (HCT-116 colon) [µM]	TGI (SK-MEL-28 melanoma) [µM]	TGI (OVCAR-5 ovarian) [µM]	TGI (OVCAR-8 ovarian) [µM]	TGI (RXF 393 renal) [µM]	TGI (MCF7 breast) [µM]
N#CC(C#N)=c1c(=O)c2c3ccccc3cc3cccc1c32	> 100	> 100	> 100	> 100	> 100	85	> 100	> 100	> 100	> 100	> 100	> 100	> 100	> 100	> 100	> 100	> 100	–	–	–
Cc1ccc(S(=O)(=O)n2cc(/C=C/C#N)c(-c3cn(S(=O)(=O)c4ccc(C)cc4)cc3-c3cn(S(=O)(=O)c4ccc(C)cc4)cc3/C=C/C#N)c2)cc1	> 100	> 100	> 100	> 100	> 100	> 100	> 100	> 100	> 100	–	> 100	> 100	> 100	> 100	> 100	–	> 100	> 100	–	–
CCOC(=O)CC1=N/C(=N/C(=N)N[N+](=O)[O-])SC1	–	–	> 100	–	> 100	–	> 100	> 100	> 100	–	> 100	–	> 100	> 100	> 100	> 100	> 100	> 100	> 100	–
Nc1ccccc1N	–	> 100	> 100	–	> 100	–	> 100	> 100	–	> 100	> 100	–	> 100	> 100	> 100	> 100	> 100	> 100	> 100	–
NC(N)=N/N=C\c1c(-c2cccc([N+](=O)[O-])c2)nc2sccn12	5.01	> 100	–	4.18	4.23	38.1	–	4.89	48.8	5	45.3	29	> 100	–	> 100	4.37	> 100	–	5.8	–
CCOc1ccc(/C=C2\N=C(c3ccccc3)OC2=O)cc1	–	> 100	> 100	–	> 100	> 100	> 100	–	> 100	> 100	–	> 100	> 100	> 100	–	> 100	> 100	> 100	> 100	> 100
CC(=O)OCC1OC(n2c3c(c(-c4ccc(C)cc4)c(C#N)c2=S)C(=O)CC(C)(C)C3)C(OC(C)=O)C(OC(C)=O)C1OC(C)=O (stereo unspecified)	62.1	> 100	–	–	> 100	> 100	> 100	42.7	38.3	> 100	> 100	60	–	82.5	> 100	66.3	> 100	> 100	92.2	> 100
OCC(O)COCn1cc(Cn2ncc3c(SCc4ccccc4)ncnc32)nn1 (stereo unspecified)	> 100	> 100	> 100	> 100	> 100	–	> 100	> 100	> 100	> 100	> 100	> 100	> 100	–	> 100	> 100	> 100	> 100	–	> 100
O=C(O)C(Cc1cc(I)c(O)c(I)c1)C1CCCCC1 (stereo unspecified)	72.5	–	–	> 100	98.3	> 100	> 100	> 100	> 100	76.2	> 100	41.5	> 100	> 100	88.7	> 100	> 100	> 100	> 100	–
COC(=O)c1c(O)c(C#N)c2[nH]c3ccccc3n2c1=O	> 100	> 100	> 100	–	> 100	> 100	> 100	> 100	> 100	> 100	> 100	> 100	> 100	> 100	> 100	–	> 100	> 100	> 100	> 100
CC[C@@H]1/C=C/C=C/C[C@H](C)[C@@H](O)[C@@H](C)C(=O)[C@H](C)[C@@H](O)[C@H](C)C(=O)[C@H](C)[C@@H](O)[C@H](C)/C=C/C(=O)O[C@H]2[C@@H](C)[C@@H](CC1)O[C@@]1(CC[C@@H](C)[C@@H](CC(C)O)O1)[C@@H]2C (stereo partly specified)	> 17.4	14.7	> 21.3	–	13.9	> 23.5	> 25	9.9	1.82	7.65	> 25	12.3	> 25	> 7.9	> 25	> 25	15.4	> 25	9.44	7.49
COc1cccc2c1C(=O)c1c(O)c3c(c(O)c1C2=O)C[C@@](O)(C(=O)CO)CC3OC1CC(N(C)CCOCC(OC(C)=O)OC(C)=O)C(O)C(C)O1 (stereo partly specified)	–	> 0.01	> 0.01	–	> 0.01	–	> 0.01	> 0.01	> 0.01	> 0.01	> 0.01	–	–	> 0.01	–	> 0.01	> 0.01	> 0.01	> 0.01	–
CN1C2CCC1/C(=C/c1cccc3c1OCO3)C(=O)/C2=C\c1cccc2c1OCO2	–	> 100	> 100	–	> 100	–	–	> 100	> 100	> 100	–	–	> 100	49.7	> 100	> 100	> 100	> 100	68	–
COc1ccc(N2C(=O)c3cc([N+](=O)[O-])cnc3S2(=O)=O)cc1	> 100	> 100	> 100	–	> 100	> 100	> 100	> 100	–	> 100	–	> 100	> 100	> 100	> 100	> 100	> 100	> 100	> 100	–
CC(C)OC(=O)NCCn1cc(-c2ccccc2)nn1	> 100	> 100	–	–	> 100	–	> 100	> 100	> 100	> 100	> 100	> 100	> 100	> 100	> 100	> 100	> 100	> 100	–	> 100
O=C(c1ccc2ccccc2c1)C1(I)S(=O)(=O)OCCOS1(=O)=O	> 100	> 100	–	–	> 100	–	> 100	> 100	–	> 100	> 100	> 100	> 100	–	> 100	> 100	> 100	> 100	–	> 100
O=C(CNc1ccccc1[N+](=O)[O-])Nn1cnc2ccc(S(=O)(=O)Nc3ccccc3[N+](=O)[O-])cc2c1=O	> 100	> 100	> 100	–	> 100	> 100	> 100	> 100	> 100	> 100	> 100	> 100	> 100	> 100	> 100	> 100	> 100	> 100	–	> 100
Brc1ccc(C2=NCSC(c3ccc(Br)cc3)=N2)cc1	> 100	63.5	> 100	–	86.3	> 100	> 100	> 100	71	48.6	> 100	56.7	> 100	63.1	59.2	> 100	> 100	> 100	44.3	> 100
COC(=O)NC(=O)NC(Cc1ccccc1)NC(=O)OCc1ccccc1 (stereo unspecified)	78.1	> 100	57.5	> 100	> 100	–	> 100	> 100	> 100	> 100	> 100	> 100	> 100	50.5	> 100	> 100	> 100	> 100	45.4	> 100
COc1cc2c(cc1OS(C)(=O)=O)N=C[C@@H]1CCCN1C2=O	> 100	> 100	> 100	> 100	> 100	> 100	> 100	> 100	> 100	> 100	> 100	–	> 100	> 100	> 100	> 100	–	> 100	> 100	> 100
COCCN(C(=O)c1ccccc1)C1CCC2(SCCS2)c2[nH]c3ccccc3c21 (stereo unspecified)	> 100	61.8	–	–	> 100	> 100	> 100	> 100	> 100	69.4	> 100	59.3	> 100	> 100	> 100	> 100	> 100	> 100	87.7	> 100
CC(C)[Si](OC12CCC(CC1O)CC2CO)(C(C)C)C(C)C (stereo unspecified)	45.6	38.1	27.5	25.7	28.9	–	28.6	60.6	26.6	44.6	39.3	24.1	27.1	26.8	20.7	40.8	31.2	29.7	–	24.4
O=C1CSCC(=O)Nc2ccccc2N1	> 100	> 100	> 100	> 100	> 100	> 100	> 100	> 100	> 100	> 100	> 100	> 100	> 100	–	> 100	> 100	> 100	> 100	> 100	–
C=CC(=O)NCCC(=O)OCn1cc(F)c(=O)[nH]c1=O	–	> 100	> 100	> 100	> 100	> 100	> 100	15.3	> 100	> 100	> 100	> 100	> 100	> 100	66.8	> 100	> 100	> 100	94.6	> 100
Cc1nnc2n1N=C(c1cc(F)c(Cl)cc1Cl)/C(=C/c1ccc(-c3ccc([N+](=O)[O-])cc3)o1)S2	–	> 100	> 100	> 100	> 100	> 100	> 100	> 100	> 100	> 100	> 100	> 100	> 100	–	> 100	> 100	> 100	> 100	–	> 100
COc1ccc(-c2cc(N3CCN(c4ccc(Cl)cc4)CC3)c(C#N)c(=O)o2)cc1	–	87.9	–	–	> 100	–	23.8	> 100	73.1	–	34.2	–	> 100	10.8	32.7	23.3	> 100	19.1	17.3	–
CC(=O)CCC#Cc1ccccc1C(=O)C(C)=[N+]=[N-]	–	68.3	> 100	–	> 100	–	> 100	> 100	> 100	85.4	–	–	> 100	69.2	47.8	> 100	> 100	> 100	97.5	–
